Measured values as given in patent US8324176B2, “Pyrazole derivatives, medicinal composition containing the same, medicinal use thereof, and intermediate for production thereof” (Kissei Pharmaceutical Co., Ltd., priority 2002, dated 2012).

Molecular target: T1, human SGLT1 (Homo sapiens, UniProt P13866)
T1 construct: expressed in transfected cells
T1 sequence (P13866 1-664): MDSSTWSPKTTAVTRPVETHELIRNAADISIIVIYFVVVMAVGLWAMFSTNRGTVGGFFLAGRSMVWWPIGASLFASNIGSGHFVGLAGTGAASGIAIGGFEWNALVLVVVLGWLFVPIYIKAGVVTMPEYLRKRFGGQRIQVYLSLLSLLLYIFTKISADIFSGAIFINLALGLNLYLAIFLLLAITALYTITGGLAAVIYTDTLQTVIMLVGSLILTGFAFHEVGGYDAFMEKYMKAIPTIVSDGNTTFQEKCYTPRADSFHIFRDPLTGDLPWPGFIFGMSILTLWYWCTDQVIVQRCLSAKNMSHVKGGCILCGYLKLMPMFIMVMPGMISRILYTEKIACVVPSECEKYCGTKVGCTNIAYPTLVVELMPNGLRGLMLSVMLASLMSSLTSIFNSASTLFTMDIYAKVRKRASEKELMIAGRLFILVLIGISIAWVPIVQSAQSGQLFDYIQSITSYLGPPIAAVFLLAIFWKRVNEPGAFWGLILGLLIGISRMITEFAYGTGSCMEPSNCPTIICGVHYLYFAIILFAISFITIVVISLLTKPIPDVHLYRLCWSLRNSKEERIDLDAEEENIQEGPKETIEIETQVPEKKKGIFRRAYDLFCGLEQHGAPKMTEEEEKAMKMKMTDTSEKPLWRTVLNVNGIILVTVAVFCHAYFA
Experiment: Assay for inhibitory effects on human SGLT1 activity (uptake of methyl-α-D-glucopyranoside in CS1-5-11D cells)
Type: cell-based
Details: CHO-K1 cells stably expressing human SGLT1 (CS1-5-11D); 1 mM α-MG uptake, 37° C., 1 hour
Description: Assay for Inhibitory Effects on Human SGLT1 Activity
1) Cloning and Construction of the Vector Expressing Human SGLT1
The cDNA library was prepared for PCR amplification by reverse transcription from total RNA deprived from human small intestine (Ori gene) using oligo-dT as a primer.
2) Establishment of Cell Line Stably Expressing Human SGLT1
The expression vector of human SGLT1 was digested by Sca I into a linear DNA. The linear DNA was transfected into CHO-K1 cells by means of lipofection (Effectene Transfection Reagent: QIAGEN). Neomycin resistant cell lines were selected by culture in the medium containing G418 (1 mg/mL, LIFE TECHNOLOGIES), and then the activity against the uptake of methyl-α-D-glucopyranoside was measured by the method described below. […] CS1-5-11D cells were cultured in the presence of G418 at 200 μg/mL.
3) Measurement of the Inhibitory Activity Against the Uptake of Methyl-α-D-glucopyranoside (α-MG)
CS1-5-11D cells were seeded into a 96-well culture plate at a density of 3×10^4 cells/well and cultured for 2 days, and were used in the uptake assay. A mixture of non-labeled (Sigma) and ^14C-labeled α-MG (Amersham Pharmcia Biotec) was added to the uptake buffer (pH 7.4: containing 140 mM sodium chloride, 2 mM potassium chloride, 1 mM calcium chloride, 1 mM magnesium chloride, 10 mM 2-[4-(2-hydroxyethyl)-1-piperazinyl]ethane sulfonic acid, and 5 mM tris(hydroxymethyl)aminomethane) at the final concentration of 1 mM. A test compound was dissolved in dimethyl sulfoxide, and then appropriately diluted with distilled water. The test compound solution was added to the uptake buffer containing 1 mM α-MG, and designated as a measurement buffer. For the control group, the measurement buffer without any test compound was prepared. For measuring the basal uptake, a basal uptake measurement buffer which contains 140 mM chorine chloride instead of sodium chloride was prepared. After removing the culture medium of CS1-5-11D cells, 180 μL of the pre-treatment buffer (the basal uptake buffer without α-MG) was added to each well and incubated at 37° C. for 10 minutes. After repeating the same treatment, the pre-treatment buffer was removed. To each well was added 75 μL of the measurement buffer or the basal uptake buffer was added and incubated at 37° C. for 1 hour. After removing the measurement buffer, cells were washed twice with 180 μL per well of the washing buffer (the basal uptake buffer containing 10 mM non-labeled α-MG). The cells were solubilized by 75 μL per well of 0.2 mol/L sodium hydroxide. The cell lysates were transferred into PicoPlates (Packard), and then added 150 μL of MicroScint-40 (Packard) and mixed. Radioactivity was measured by means of micro-scintillation counter TopCount (Packard). One hundred was set to the difference between the uptake in the control group and the basal uptake, and the uptake of methyl α-D-glucopyranoside a teach drug concentration were calculated.

Compared with `Cc1cc(OCCCN)ccc1Cc1c(O[C@@H]2O[C@H](CO)[C@@H](O)[C@H](O)[C@H]2O)n[nH]c1C(C)C` [Example 9, 4-{[4-(3-Aminopropoxy)-2-methylphenyl]methyl}-3-(β-D-glucopyranosyloxy)-5-isopropyl-1H-pyrazole], `Cc1cc(OCCCNCCO)ccc1Cc1c(O[C@@H]2O[C@H](CO)[C@@H](O)[C@H](O)[C@H]2O)n[nH]c1C(C)C` [Example 58, 3-(β-D-Glucopyranosyloxy)-4-({4-[3-(2-hydroxyethylamino)propoxy]-2-methylphenyl}methyl)-5-isopropyl-1H-pyrazole] is 2.4-fold higher in IC50: 0.042 µM for the first, 0.1 µM for the second. The first is the more potent here.

`CC(C)c1[nH]nc(O[C@@H]2O[C@H](CO)[C@@H](O)[C@H](O)[C@H]2O)c1Cc1ccc(OCCCNC(=O)NC(CO)CO)cc1` [Example 22, 3-(β-D-Glucopyranosyloxy)-4-{[4-(3-{3-[2-hydroxy-1-(hydroxymethyl)ethyl]ureido}propoxy)phenyl]methyl}-5-isopropyl-1H-pyrazole] and `CC(C)c1[nH]nc(O[C@@H]2O[C@H](CO)[C@@H](O)[C@H](O)[C@H]2O)c1Cc1ccc(OCCCNC(C)(C)CO)cc1` [Example 61, 3-(β-D-Glucopyranosyloxy)-4-[(4-(3-[2-hydroxy-1,1-di(methyl)ethylamino]propoxy)phenyl)methyl]-5-isopropyl-1H-pyrazole] are within 1.5-fold of each other in IC50: 0.233 µM for the first, 0.199 µM for the second.

`Cc1cc(OCCCNC(=O)NC(C)(CO)CO)ccc1Cc1c(O[C@@H]2O[C@H](CO)[C@@H](O)[C@H](O)[C@H]2O)n[nH]c1C(C)C` [Example 28, 3-(β-D-Glucopyranosyloxy)-4-{[4-(3-{3-[2-hydroxy-1-(hydroxymethyl)-1-(methyl)ethyl]ureido}propoxy)-2-methylphenyl]methyl}-5-isopropyl-1H-pyrazole] and `Cc1cc(OCCNC(=O)NC(C)(CO)CO)ccc1Cc1c(O[C@@H]2O[C@H](CO)[C@@H](O)[C@H](O)[C@H]2O)n[nH]c1C(C)C` [Example 32, 3-(β-D-Glucopyranosyloxy)-4-{[4-(2-{3-[2-hydroxy-1-(hydroxymethyl)-1-(methyl)ethyl]ureido}ethoxy)-2-methylphenyl]methyl}-5-isopropyl-1H-pyrazole] are within 1.5-fold of each other in IC50: 0.09 µM for the first, 0.113 µM for the second.

Compared with `Cc1cc(OCCCNC(=O)NC(C)(C)CO)ccc1Cc1c(O[C@@H]2O[C@H](CO)[C@@H](O)[C@H](O)[C@H]2O)n[nH]c1C(C)C` [Example 29, 3-(β-D-Glucopyranosyloxy)-4-{[4-(3-(3-[2-hydroxy-1,1-di(methyl)ethyl]ureido)propoxy)-2-methylphenyl]methyl}-5-isopropyl-1H-pyrazole], `Cc1cc(OCCNC(=O)NC(C)(C)CO)ccc1Cc1c(O[C@@H]2O[C@H](CO)[C@@H](O)[C@H](O)[C@H]2O)n[nH]c1C(C)C` [Example 33, 3-(β-D-Glucopyranosyloxy)-4-{[4-(2-{3-[2-hydroxy-1,1-di(methyl)ethyl]ureido}ethoxy)-2-methylphenyl]methyl}-5-isopropyl-1H-pyrazole] is 3.4-fold higher in IC50: 0.019 µM for the first, 0.065 µM for the second.

`Cc1cc(OCCCNC(=O)NCCO)ccc1Cc1c(O[C@@H]2O[C@H](CO)[C@@H](O)[C@H](O)[C@H]2O)n[nH]c1C(C)C` [Example 30, 3-(β-D-Glucopyranosyloxy)-4-[(4-(3-[3-(2-hydroxyethyl)ureido]propoxy)-2-methylphenyl)methyl]-5-isopropyl-1H-pyrazole] and `Cc1cc(OCCNCCO)ccc1Cc1c(O[C@@H]2O[C@H](CO)[C@@H](O)[C@H](O)[C@H]2O)n[nH]c1C(C)C` [Example 63, 3-(β-D-Glucopyranosyloxy)-4-({4-[2-(2-hydroxyethylamino)ethoxy]-2-methylphenyl}methyl)-5-isopropyl-1H-pyrazole] are within 1.5-fold of each other in IC50: 0.257 µM for the first, 0.322 µM for the second.

Compared with `Cc1cc(OCCNC(=O)NC(C)(C)C(N)=O)ccc1Cc1c(O[C@@H]2O[C@H](CO)[C@@H](O)[C@H](O)[C@H]2O)n[nH]c1C(C)C` [Example 31, 4-{[4-(2-{3-[1-Carbamoyl-1-(methyl)ethyl]ureido}ethoxy)-2-methylphenyl]methyl}-3-(β-D-glucopyranosyloxy)-5-isopropyl-1H-pyrazole], `Cc1cc(OCCCNC(C)(C)C(N)=O)ccc1Cc1c(O[C@@H]2O[C@H](CO)[C@@H](O)[C@H](O)[C@H]2O)n[nH]c1C(C)C` [Example 51, 4-[(4-{3-[1-Carbamoyl-1-(methyl)ethylamino]propoxy}-2-methylphenyl)methyl]-3-(β-D-glucopyranosyloxy)-5-isopropyl-1H-pyrazole] is 7.5-fold lower in IC50: 0.166 µM for the first, 0.022 µM for the second.

Going from `CNC(=NC#N)NCCCOc1ccc(Cc2c(O[C@@H]3O[C@H](CO)[C@@H](O)[C@H](O)[C@H]3O)n[nH]c2C(C)C)cc1` [Example 36, 4-({4-[3-(2-Cyano-3-methylguanidino)propoxy]phenyl}methyl)-3-(β-D-glucopyranosyloxy)-5-isopropyl-1H-pyrazole] to `CC(C)c1[nH]nc(O[C@@H]2O[C@H](CO)[C@@H](O)[C@H](O)[C@H]2O)c1Cc1ccc(OCCCNS(N)(=O)=O)cc1` [Example 38, 3-(β-D-Glucopyranosyloxy)-5-isopropyl-4-({4-[3-(sulfamoylamino)propoxy]phenyl}methyl)-1H-pyrazole], the IC50 falls from 0.383 µM to 0.246 µM (1.6-fold).

`CC(C)c1[nH]nc(O[C@@H]2O[C@H](CO)[C@@H](O)[C@H](O)[C@H]2O)c1Cc1ccc(OCCCNC(C)(C)C(N)=O)cc1` [Example 48, 4-[(4-{3-[1-Carbamoyl-1-(methyl)ethylamino]propoxy}phenyl)methyl]-3-(β-D-glucopyranosyloxy)-5-isopropyl-1H-pyrazole] and `Cc1cc(OCCCNC(C)(C)CO)ccc1Cc1c(O[C@@H]2O[C@H](CO)[C@@H](O)[C@H](O)[C@H]2O)n[nH]c1C(C)C` [Example 57, 3-(β-D-Glucopyranosyloxy)-4-[(4-(3-[2-hydroxy-1,1-di(methyl)ethylamino]propoxy)-2-methylphenyl)methyl]-5-isopropyl-1H-pyrazole] are within 1.5-fold of each other in IC50: 0.054 µM for the first, 0.043 µM for the second.

`Cc1cc(OCCNCC(N)=O)ccc1Cc1c(O[C@@H]2O[C@H](CO)[C@@H](O)[C@H](O)[C@H]2O)n[nH]c1C(C)C` [Example 49, 4-({4-[2-(Carbamoylmethylamino)ethoxy]-2-methylphenyl}methyl)-3-(1-D-glucopyranosyloxy)-5-isopropyl-1H-pyrazole] and `Cc1cc(OCCNCCC(N)=O)ccc1Cc1c(O[C@@H]2O[C@H](CO)[C@@H](O)[C@H](O)[C@H]2O)n[nH]c1C(C)C` [Example 50] are within 1.5-fold of each other in IC50: 0.148 µM for the first, 0.159 µM for the second.

`Cc1cc(OCCNC(CO)CO)ccc1Cc1c(O[C@@H]2O[C@H](CO)[C@@H](O)[C@H](O)[C@H]2O)n[nH]c1C(C)C` [Example 62, 3-(β-D-Glucopyranosyloxy)-4-[(4-{2-[2-hydroxy-1-(hydroxymethyl)ethylamino]ethoxy}-2-methylphenyl)methyl]-5-isopropyl-1H-pyrazole] showed an IC50 of 0.138 µM.
